Key:
Format in all cases: in vivo
[1] = system: Alopecurus myosuroides (ALOMY); experiment: Pre-emergence herbicidal activity, glasshouse pot test; set-up: key: 5=total damage to plant; 0=no damage to plant; conditions: 1000 g/ha, pre-emergence spray, evaluated after 13 days, damage score 0-5
Experimental: (§1) Seeds of a variety of test species were sown in standard soil in pots: Triticum aestivium (TRZAW), Avena fatua (AVEFA), Alopecurus myosuroides (ALOMY), Echinochloa crus-galli (ECHCG), Lolium perenne (LOLPE), and Setaria faberi (SETFA). After cultivation for one day (pre-emergence) under controlled conditions in a glasshouse (at 24/16° C., day/night; 14 hours light; 65% humidity), the plants were sprayed with an aqueous spray solution derived from the formulation of the technical active ingredient in acetone/water (50:50) solution containing 0.5% Tween 20 (polyoxyethelyene sorbitan monolaurate, CAS RN 9005-64-5). The test plants were then grown in a glasshouse under controlled conditions (at 24/16° C., day/night; 14 hours light; 65% humidity) and watered twice daily. After 13 days, the test was evaluated (5=total damage to plant; 0=no damage to plant).

Avena fatua (AVEFA) [2] = experiment: as above; set-up: key: 5=total damage to plant; 0=no damage to plant; conditions: 1000 g/ha, pre-emergence spray, evaluated after 13 days, damage score 0-5
Experimental: as §1

[3] = system: Echinochloa crus-galli (ECHCG); experiment: as above; set-up: key: 5=total damage to plant; 0=no damage to plant; conditions: 1000 g/ha, pre-emergence spray, evaluated after 13 days, damage score 0-5
Experimental: as §1

Lolium perenne (LOLPE) [4] = experiment: as above; set-up: key: 5=total damage to plant; 0=no damage to plant; conditions: 1000 g/ha, pre-emergence spray, evaluated after 13 days, damage score 0-5
Experimental: as §1

Setaria faberi (SETFA) [5] = experiment: as above; set-up: key: 5=total damage to plant; 0=no damage to plant; conditions: 1000 g/ha, pre-emergence spray, evaluated after 13 days, damage score 0-5
Experimental: as §1

[6] = system: Triticum aestivium (TRZAW); experiment: as above; set-up: key: 5=total damage to plant; 0=no damage to plant; conditions: 1000 g/ha, pre-emergence spray, evaluated after 13 days, damage score 0-5
Experimental: as §1

[7] = system: Alopecurus myosuroides (ALOMY); experiment: Post-emergence herbicidal activity, glasshouse pot test; set-up: key: 5=total damage to plant; 0=no damage to plant; conditions: 1000 g/ha, post-emergence spray after 8 days cultivation, evaluated after 13 days, damage score 0-5
Experimental: (§2) Seeds of a variety of test species were sown in standard soil in pots: Triticum aestivium (TRZAW), Avena fatua (AVEFA), Alopecurus myosuroides (ALOMY), Echinochloa crus-galli (ECHCG), Lolium perenne (LOLPE), and Setaria faberi (SETFA). After 8 days cultivation (post-emergence) under controlled conditions in a glasshouse (at 24/16° C., day/night; 14 hours light; 65% humidity), the plants were sprayed with an aqueous spray solution derived from the formulation of the technical active ingredient in acetone/water (50:50) solution containing 0.5% Tween 20 (polyoxyethelyene sorbitan monolaurate, CAS RN 9005-64-5). The test plants were then grown in a glasshouse under controlled conditions (at 24/16° C., day/night; 14 hours light; 65% humidity) and watered twice daily. After 13 days, the test was evaluated (5=total damage to plant; 0=no damage to plant).

[8] = system: Echinochloa crus-galli (ECHCG); experiment: as above; set-up: key: 5=total damage to plant; 0=no damage to plant; conditions: 1000 g/ha, post-emergence spray after 8 days cultivation, evaluated after 13 days, damage score 0-5
Experimental: as §2

Lolium perenne (LOLPE) [9] = experiment: as above; set-up: key: 5=total damage to plant; 0=no damage to plant; conditions: 1000 g/ha, post-emergence spray after 8 days cultivation, evaluated after 13 days, damage score 0-5
Experimental: as §2

Setaria faberi (SETFA) [10] = experiment: as above; set-up: key: 5=total damage to plant; 0=no damage to plant; conditions: 1000 g/ha, post-emergence spray after 8 days cultivation, evaluated after 13 days, damage score 0-5
Experimental: as §2

[11] = system: Triticum aestivium (TRZAW); experiment: as above; set-up: key: 5=total damage to plant; 0=no damage to plant; conditions: 1000 g/ha, post-emergence spray after 8 days cultivation, evaluated after 13 days, damage score 0-5
Experimental: as §2

Avena fatua (AVEFA) [12] = experiment: as above; conditions: 1000 g/ha, post-emergence spray after 8 days cultivation, evaluated after 13 days, damage score 0-5
Experimental: as §2

| Compound | Control of weed species after pre-emergence application, ALOMY [1] | Control of weed species after pre-emergence application, AVEFA (Avena fatua (AVEFA) [2]) | Control of weed species after pre-emergence application, ECHCG [3] | Control of weed species after pre-emergence application, LOLPE (Lolium perenne (LOLPE) [4]) | Control of weed species after pre-emergence application, SETFA (Setaria faberi (SETFA) [5]) | Control of weed species after pre-emergence application, TRAZW [6] | Control of weed species after post-emergence application, ALOMY [7] | Control of weed species after post-emergence application, ECHCG [8] | Control of weed species after post-emergence application, LOLPE (Lolium perenne (LOLPE) [9]) | Control of weed species after post-emergence application, SETFA (Setaria faberi (SETFA) [10]) | Control of weed species after post-emergence application, TRAZW [11] | Control of weed species after post-emergence application, AVEFA (Avena fatua (AVEFA) [12]) |
| --- | --- | --- | --- | --- | --- | --- | --- | --- | --- | --- | --- | --- |
| O=C(Nc1cnc(-c2cncc(F)c2)nc1C(F)(F)F)C(Cl)(Cl)Cl [Compound F5] | 0 | 1 | 3 | 0 | 5 | 0 | 2 | 4 | 3 | 5 | 1 | 2 |
| O=C1CCCCN1c1cnc(-c2cncc(F)c2)nc1C(F)(F)F [Compound F29] | 1 | 0 | 2 | 1 | 3 | 1 | 0 | 4 | 1 | 5 | 0 | 3 |
| CC(C)=CC(=O)Nc1cnc(-c2cncc(F)c2)nc1C(F)(F)F [Compound F24] | 0 | 1 | 2 | 1 | 5 | 1 | 1 | 5 | 1 | 4 | 1 | 3 |
| CCCC(=O)Nc1cnc(-c2cncc(F)c2)nc1C(F)(F)F [Compound F33] | 0 | 1 | 4 | 0 | 4 | 1 | 1 | 4 | 2 | 5 | 1 | 3 |
| O=C(COc1ccccc1)Nc1cnc(-c2cncc(F)c2)nc1C(F)(F)F [Compound F18] | 0 | 1 | 3 | 0 | 4 | 0 | 0 | 4 | 1 | 4 | 1 | 3 |
| O=C(Nc1cnc(-c2cncc(F)c2)nc1C(F)(F)F)C1CCC1 [Compound F26] | 0 | 1 | 3 | 0 | 4 | 1 | 1 | 5 | 2 | 5 | 1 | 4 |
| O=C(CCC1CCCC1)Nc1cnc(-c2cncc(F)c2)nc1C(F)(F)F [Compound F19] | 0 | 1 | 4 | 1 | 4 | 1 | 0 | 4 | 1 | 4 | 0 | 2 |
| CC(C)C(=O)Nc1cnc(-c2cncnc2)nc1C(F)(F)F [Compound F32] | 1 | 1 | 4 | 1 | 4 | 1 | 1 | 4 | 2 | 4 | 1 | 3 |
| COCCC(=O)Nc1cnc(-c2cncnc2)nc1C(F)(F)F [Compound F16] | 0 | 1 | 4 | 1 | 5 | 0 | 1 | 5 | 2 | 5 | 1 | 3 |
| CCC(=O)Nc1cnc(-c2cncc(F)c2)nc1C(F)(F)F [Compound F4] | 1 | 3 | 3 | 0 | 4 | 0 | 0 | 4 | 2 | 4 | 1 | 4 |
| O=C(Nc1cnc(-c2cncc(F)c2)nc1C(F)(F)F)c1ccccc1 [Compound F10] | 0 | 1 | 4 | 1 | 4 | 0 | 0 | 5 | 1 | 5 | 1 | 2 |

Source: US20200267980A1, “Herbicidally Active Pyridyl-/Pyrimidyl-Pyrimidine Derivatives” (Syngenta Participations AG, priority 2017, published 2020)
